# Results as given in US8785184B2, “Differentiation of human embryonic stem cells” (Janssen Biotech, Inc., priority 2009, dated 2014).
# B1: activin B (protein, UniProt P09529 293-407, looked up)
# Inhibin beta B chain: GLECDGRTNLCCRQQFFIDFRLIGWNDWIIAPTGYYGNYCEGSCPAYLAGVPGSASSFHTAVVNQYRMRGLNPGTVNSCCIPTKLSTMSMLYFDDEYNIVKRDVPNMIVEECGCA
# modifications: Inhibin beta B chain
# notes: TGFβ receptor agonist
# B2: activin A (protein, UniProt P08476 311-426, looked up)
# Inhibin beta A chain: GLECDGKVNICCKKQFFVSFKDIGWNDWIIAPSGYHANYCEGECPSHIAGTSGSSLSFHSTVINHYRMRGHSPFANLKSCCVPTKLRPMSMLYYDDGQNIIKKDIQNMIVEECGCS
# modifications: Inhibin beta A chain
# notes: TGFβ receptor agonist (R&D Systems)
# B3: GDF-11 (protein, UniProt O95390 299-407, looked up)
# Growth/differentiation factor …: NLGLDCDEHSSESRCCRYPLTVDFEAFGWDWIIAPKRYKANYCSGQCEYMFMQKYPHTHLVQQANPRGSAGPCCTPTKMSPINMLYFNDKQQIIYGKIPGMVVDRCGCS
# notes: TGFβ receptor agonist
# B4: TGFβ2 (protein, UniProt P61812 303-414, looked up)
# Transforming growth factor …: ALDAAYCFRNVQDNCCLRPLYIDFKRDLGWKWIHEPKGYNANFCAGACPYLWSSDTQHSRVLSLYNTINPEASASPCCVSQDLEPLTILYYIGKTPKIEQLSNMIVKSCKCS
# notes: TGFβ receptor agonist
# What was measured:
# [1] = test system: human embryonic stem cells line H1; settings: stage 4 day 3
# Protocol: (§1) Briefly, cells of the human embryonic stem cells line H1 were cultured on […]™ coated dishes (1:30 dilution) with RPMI medium+2% BSA+100 ng/ml activin A+20 ng/ml WNT-3a+8 ng/ml of bFGF for one day followed by treatment with RPMI media+2% BSA+100 ng/ml activin A+8 ng/ml of bFGF for an additional two days (Stage 1), then • a. DMEM/F12+2% BSA+50 ng/ml FGF7 for three days (Stage 2), then • b. DMEM-High glucose+1% B27+50 ng/ml FGF7+0.25 μM Cyclopamine-KAAD+2 μM Retinoic acid (RA)+100 ng/ml of Noggin+20 ng/ml Activin A for four days (Stage 3), then • c. DMEM-High glucose+1% B27+100 ng/ml Noggin+1 μM ALK5 inhibitor II for three days (Stage 4), or • d. DMEM-High glucose+1% B27 only for three days (Stage 4).
# Pancreatic endocrine precursor cells express NGN3.
# [2] = test system: human embryonic stem cell line H1; assay: Immunofluorescence analysis of cultures at stage 3 day 4 (Example 1); assay type: cell-based
# Protocol: (§2) Cells of the human embryonic stem cell line H1 were cultured on MATRIGEL-coated plates (1:30 dilution), and differentiated into pancreatic endocrine precursor cells using the following protocol: • a.
# (§3) Cultures were sampled in duplicate on stage 3 day 4, and analyzed for expression of pancreatic markers using real-time PCR. Cultures also were fixed in parallel for immunofluorescence analysis.
# [3] = test system: human embryonic stem cells line H1; settings: stage 4; immunocytochemistry (FIG. 6)
# Protocol: as §1
# [4] = test system: human embryonic stem cell line H1; assay: Real-time PCR of pancreatic markers at stage 3 day 4 (Example 1); assay type: cell-based
# Protocol: Cultures were sampled in duplicate on stage 3 day 4, and analyzed for the expression of pancreatic markers using real-time PCR.
# as §2, §3
# [5] = 1 μM ALK5 inhibitor II + 100 ng/ml Noggin vs basal medium (FIG. 5)
# [6] = 1 μM ALK5 inhibitor II + 100 ng/ml Noggin vs basal medium (FIG. 5 panel b)
# [7] = replacement of activin A in treatment 2, four days, stage 3 day 4 (FIG. 4)
molecule,measurement,setting,value
"Cc1cccc(-c2[nH]ncc2-c2ccc3ncccc3n2)n1 [Alk5 inhibitor II, ALK5 inhibitor II]",NGN3 expression,[1]; [5],significant increase
same,expression of NEUROD,[1]; [5],up regulation
same,expression of NKX2.2,[1]; [5],up regulation
same,expression of PAX4,[1]; [5],up regulation
same,expression of PAX6,[1]; [5],up regulation
same,expression of PTF1 alpha,[1]; [5],increase
same,expression of NKX6.1,[1]; [6],did not appear to affect
same,expression of PDX1,[1]; [6],did not appear to affect
same,number of NGN3 expressing cells,"[2]; 1 μM ALK5 inhibitor II added to treatment 1 (Table 1, FIG. 2 panel f)",significantly increased
same,number of cells positive for NGN3 protein,[3],increase
same,PDX1 expression,"[4]; stage 3 day 4, 1 μM ALK5 inhibitor II added to treatment 1",No significant impact
same,level of expression of NKX6.1,"[4]; stage 3 day 4, 1 μM ALK5 inhibitor II added to treatment 1, compared with treatment 1",decrease
GDF-8,PDX1 expression,[4]; [7],No significant impact
same,expression of NGN3,[4]; [7],down-regulation
same,expression of NKX6.1,[4]; [7],increase
B1,PDX1 expression,[4]; [7],No significant impact
same,expression of NGN3,[4]; [7],down-regulation
same,expression of NKX6.1,[4]; [7],increase
B2,expression of NGN3,[2]; immunofluorescence (FIG. 2),blocked the expression
same,number of NKX6.1 expressing cells,"[2]; immunofluorescence (FIG. 2), 20 ng/ml activin A added to treatment 1",significantly increased
same,NGN3 expression,"[4]; stage 3 day 4, 20 or 50 ng/ml activin A with FGF7, cyclopamine-KAAD, retinoic acid, Noggin (FIG. 1)",down-regulation
same,NKX6.1 expression,"[4]; stage 3 day 4, 20 or 50 ng/ml activin A with FGF7, cyclopamine-KAAD, retinoic acid, Noggin, compared to cells receiving no activin A (FIG. 1)",dramatic increase
B3,PDX1 expression,[4]; [7],No significant impact
same,expression of NGN3,[4]; [7],down-regulation
same,expression of NKX6.1,[4]; [7],increase
B4,PDX1 expression,[4]; [7],No significant impact
same,expression of NGN3,[4]; [7],down-regulation
same,expression of NKX6.1,[4]; [7],increase
